System: Sarcoma-180
Experiment: Antitumor test against subcutaneously transplanted Sarcoma-180 in ICR mice (Pharmacological Test 1)
Format: in vivo
Details: Sarcoma-180 s.c. in ICR mice, tail vein once a day for 7 consecutive days from 24 h after transplantation, tumor weight on 10th day
Protocol: Sarcoma-180 subcultured in ascites of ICR mice was diluted with a physiological saline and subcutaneously transplanted into the backs of ICR mice in an amount of 2 ×10^7 cells each. Twenty-four hours after the transplantation, a test compound dissolved in sterilized physiological saline was administered to the tail vein of each of the mice once a day for 7 consecutive days.
The solid tumor was isolated from under the dorsal skin of mice on the 10th day after the transplantation to measure the weight of the tumor There was determined the ratio (T/C) of the weight of tumor (T) of the test compound group to the weight of tumor (C) of the control group.

Compound | 50% tumor inhibition dose (ED50), dose at which T/C of tumor weight is 0.5 [mg/kg] | ED50 (Mus musculus, sc, 240 h, read-out: 50% tumor inhibition dose (ED50), dose at which T/C of tumor weight is 0.5) [mg/kg]
3'-O-(5-bromo-2-thenyl)-2'-deoxy-5-fluoro-5'-O- glycyluridine hydrochloride [Test Compound 2] | 7 | –
Cl.NCC(=O)OC[C@H]1O[C@@H](n2cc(F)c(=O)[nH]c2=O)C[C@@H]1OCc1ccc(Cl)s1 [Test Compound 1, 3'-O-(5-chloro-2-thenyl)-2'-deoxy-5-fluoro-5'-O-glycyluridine hydrochloride] | – | 5

From US4992534A, “3'-O-,5'-O-derivatives of 2'-deoxy-5-fluorouridine” (Otsuka Pharmaceutical Co., Ltd., priority 1987, dated 1991)
